Data on 14 compounds can be found in ChEMBL document CHEMBL1131763, “Thiazole-derived potent, highly bioavailable short duration growth hormone secretagogues” (Bioorg Med Chem Lett, 1999).

Activity calls are given as the source filed them. The rule behind the calls is not given here. Where only a bound is given, the exact number is not on record here.

Common to all, as to assay type: functional, organism-based
The species named for one experiment is Rattus norvegicus. The experiment is described as follows: Concentration required for determining half-maximal release of growth hormone(GH) in the rat pituitary cell assay. The conditions noted are these: Pituitary gland cell.
The test system of experiment [1] is Canis familiaris. The experiment is described as follows: In vivo growth hormone(GH) release in beagles after intravenous administration; NA- Not active. As to conditions: Canis lupus familiaris.
Experiment [2] deals with Canis familiaris. The experiment is described as follows: In vivo growth hormone(GH) release in beagles after intravenously administered dose of 0.01 mg/kg; 1/1. More on the design: dose 0.01 mg/kg. The conditions noted are these: Canis lupus familiaris.
The subject of experiment [3] is Canis familiaris. The experiment is described as follows: In vivo growth hormone(GH) release in beagles after orally administered dose of 0.25 mg/kg; 6/8. More on the design: dose 0.25 mg/kg. The conditions noted are these: Canis lupus familiaris.
For experiment [4], the system named is Canis familiaris. The experiment is described as follows: In vivo growth hormone(GH) release in beagles after orally administered dose of 0.5 mg/kg;8/8. More on the design: dose 0.5 mg/kg. The conditions noted are these: Canis lupus familiaris.

For orientation: EC50 means the concentration giving half of the maximal effect. Low readings indicate a more potent agent, high ones a less potent agent. For `CC(C)(N)C(=O)N[C@H](Cc1c[nH]c2ccccc12)C(=O)N1CCC[C@](Cc2ccccc2)(C(=O)O)C1`, in the experiment listed under Rattus norvegicus, the EC50 is 190 nM.

On to `CC(C)(N)C(=O)N[C@H](Cc1c[nH]c2ccccc12)C(=O)N1CCC[C@](Cc2cscn2)(C(=O)O)C1`, for which the EC50 in the experiment filed under Rattus norvegicus is more than 500 nM.

Regarding `CC(C)(N)C(=O)N[C@H](Cc1c[nH]c2ccccc12)C(=O)N1CCC[C@](Cc2ccccn2)(C(=O)O)C1`, a half-maximal effect in the experiment filed under Rattus norvegicus (EC50) was put at 570 nM. That is a sub-micromolar value.

In the case of `CCOC(=O)[C@]1(Cc2ccccn2)CCCN(C(=O)[C@@H](Cc2c[nH]c3ccccc23)NC(=O)C(C)(C)N)C1`, the EC50 in the experiment filed under Rattus norvegicus was 0.2 nM.

`CCOC(=O)C1(Cc2ccccn2)CCCN(C(=O)[C@@H](Cc2c[nH]c3ccccc23)NC(=O)C(C)(C)N)C1` (stereo partly drawn): in the experiment listed under Rattus norvegicus, the midpoint of the response, the EC50, lay at 0.5 nM.

Compound `CCOC(=O)C1(Cc2cccnc2)CCCN(C(=O)[C@@H](Cc2c[nH]c3ccccc23)NC(=O)C(C)(C)N)C1` (stereo partly drawn) displayed an EC50 in the experiment listed under Rattus norvegicus of 2.2 nM.

In the case of `CCOC(=O)C1(Cc2cscn2)CCCN(C(=O)[C@@H](Cc2c[nH]c3ccccc23)NC(=O)C(C)(C)N)C1` (stereo partly drawn), in the experiment filed under Rattus norvegicus, the EC50 came out at 1 nM.

In the case of `CCOC(=O)C1(Cc2cncs2)CCCN(C(=O)[C@@H](Cc2c[nH]c3ccccc23)NC(=O)C(C)(C)N)C1` (stereo partly drawn), the Response result with Canis familiaris [1] is “inactive”. In the experiment filed under Rattus norvegicus, this compound came in with an EC50 of 6.1 nM.

Compound `CCOC(=O)C1(Cc2ccncc2)CCCN(C(=O)[C@@H](Cc2c[nH]c3ccccc23)NC(=O)C(C)(C)N)C1` (stereo partly drawn) yielded an EC50 in the experiment listed under Rattus norvegicus of 4.4 nM.

As to `CCOC(=O)C1(Cc2nccs2)CCCN(C(=O)[C@@H](Cc2c[nH]c3ccccc23)NC(=O)C(C)(C)N)C1` (stereo partly drawn), a half-maximal effect in the experiment filed under Rattus norvegicus (EC50) was put at 4.2 nM.

With `CCOC(=O)[C@@]1(Cc2ccccc2)CCCN(C(=O)[C@@H](Cc2c[nH]c3ccccc23)NC(=O)C(C)(C)N)C1`, the EC50 in the experiment filed under Rattus norvegicus was determined as 1.6 nM. In addition, the Response entry in the experiment with Canis familiaris [2] is “inactive”. Also, the Response entry with Canis familiaris [3] is “Partially active”. In addition, the Response result with Canis familiaris [4] was “Active”.

In turn, `CCOC(=O)[C@@]1(Cc2ccccn2)CCCN(C(=O)[C@@H](Cc2c[nH]c3ccccc23)NC(=O)C(C)(C)N)C1` showed an EC50 in the experiment filed under Rattus norvegicus of 3 nM.

As for `CCOC(=O)[C@]1(Cc2cscn2)CCCN(C(=O)[C@@H](Cc2c[nH]c3ccccc23)NC(=O)C(C)(C)N)C1`, the midpoint of the response in the experiment listed under Rattus norvegicus, the EC50, lay at 0.5 nM. This EC50 is about 6-fold lower than that of the compound before.

Compound `CCOC(=O)[C@@]1(Cc2cscn2)CCCN(C(=O)[C@@H](Cc2c[nH]c3ccccc23)NC(=O)C(C)(C)N)C1` came in with a 50% effective concentration (EC50) in the experiment listed under Rattus norvegicus of 15 nM.
